This note sets out measurements from ChEMBL document CHEMBL1201862, “PubChem BioAssay data set” (2004).

Some test systems named below: SF-268; DU-145; HCC 2998; M14; LOX IMVI; SNB-19; NCI-H460; TK-10; MDA-N; NCI-H23; K562; A549; OVCAR-3; NCI-H522; CCRF-CEM; HCT-15; SR; SK-MEL-2; SNB-75; A498.
What all share (experiment): NCI anticancer screen, dose series, 48 h

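Exposure lasted 48 hours, with cells grown in 96-well plates and compounds tested at five concentrations. The concentration for 50% growth inhibition is given as GI50.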 The source made the active and inactive calls. No stated cut-off is given here; in the data, active = GI50 up to about 1.1 µM and inactive = higher.

For `O=C(CCN1CCOCC1)Nc1ccc2sc3ccccc3c(=O)c2n1`, the GI50 is 52.2 µM (inactive) in the assay with SF-268; 47 µM (inactive) with DU-145; 33.9 µM (inactive) with HCC 2998; 37.8 µM (inactive) in the assay on M14; 19.6 µM (inactive) in the assay with LOX IMVI; 49.2 µM (inactive) in the assay with SNB-19. Further, the GI50 in the assay on NCI-H460 is 37.8 µM (inactive); in the assay on TK-10, 37.4 µM (inactive); in the assay with MDA-N, 23.3 µM (inactive); in the assay on NCI-H23, 49.1 µM (inactive); in the assay with K562, 8.49 µM (inactive); in the assay with A549, 38.9 µM (inactive). For the same compound, the GI50 was 47.9 µM (inactive) with OVCAR-3; 13.2 µM (inactive) in the assay with NCI-H522; 19.7 µM (inactive) with CCRF-CEM; 33.9 µM in the assay on HCT-15; 44.3 µM (inactive) in the assay with SR; 64 µM (inactive) in the assay with SK-MEL-2. Besides, the GI50 with SNB-75 is 19.6 µM (inactive).

Regarding `CCOC(=O)c1nc2ccccc2nc1Nc1cc(OC)c(OC)c(OC)c1`, the GI50 in the assay on SF-268, with DU-145, in the assay on HCC 2998, in the assay on M14, in the assay on SNB-19 and in the assay on NCI-H460 was > 100 µM (inactive) throughout. Also, the GI50 in the assay with TK-10 is > 10 µM (inactive); with MDA-N it was > 100 µM (inactive); with NCI-H23, > 100 µM (inactive); in the assay with K562 it was > 100 µM (inactive); with A549 it was > 100 µM (inactive); in the assay with OVCAR-3 it was > 100 µM (inactive). Moreover, the GI50 with NCI-H522 was > 100 µM (inactive); in the assay on CCRF-CEM it was > 100 µM (inactive); with HCT-15, more than 100 µM; in the assay with SR, > 100 µM (inactive); with SK-MEL-2, > 100 µM (inactive); in the assay with SNB-75 it was 43.6 µM (inactive).

`CC(C)(C)n1c(=O)n(C(=O)C(Cl)(Cl)Cl)n(C(=O)C(Cl)(Cl)Cl)c1=O`: the GI50 with SF-268, in the assay with DU-145, with HCC 2998, in the assay with M14, with LOX IMVI and in the assay with SNB-19 was > 100 µM (inactive) each time. Moreover, the GI50 in the assay with NCI-H460, with TK-10, in the assay on MDA-N, in the assay on NCI-H23, in the assay with K562 and in the assay on A549 was > 100 µM (inactive) each time. The GI50 with OVCAR-3 was > 100 µM (inactive); in the assay with NCI-H522 it was > 100 µM (inactive); with CCRF-CEM, > 100 µM (inactive); in the assay with HCT-15, more than 100 µM; in the assay with SR, > 100 µM (inactive); with SK-MEL-2, > 100 µM (inactive).

On to `O=C1CCC2(CC1)Cc1ccccc1C2O` (stereo unspecified), for which the GI50 in the assay with SF-268, with DU-145, in the assay with HCC 2998, with M14, with LOX IMVI and in the assay on SNB-19 was > 100 µM (inactive) each time. The GI50 in the assay with NCI-H460, in the assay on TK-10, in the assay on MDA-N, in the assay with NCI-H23, in the assay with K562 and in the assay on A549 was > 100 µM (inactive) each time. For the same compound, the GI50 was > 100 µM (inactive) in the assay with NCI-H522; > 100 µM (inactive) in the assay with CCRF-CEM; more than 100 µM with HCT-15; > 100 µM (inactive) in the assay on SR; > 100 µM (inactive) in the assay with SK-MEL-2; < 0.01 µM (active) in the assay on SNB-75.

In the case of `CCP(=O)(OC)C1=CCN(C(=O)OCC[Si](C)(C)C)CC1` (stereo unspecified), the GI50 in the assay on SF-268, in the assay with DU-145, in the assay with HCC 2998, in the assay with M14, with LOX IMVI and in the assay on A498 was > 100 µM (inactive) throughout. The GI50 in the assay on SNB-19, in the assay on NCI-H460, with TK-10, in the assay with MDA-N, with NCI-H23 and in the assay on K562 was > 100 µM (inactive) each time. Moreover, the GI50 in the assay with A549 is > 100 µM (inactive); in the assay on OVCAR-3 it was > 100 µM (inactive); in the assay on NCI-H522, > 100 µM (inactive); in the assay on CCRF-CEM, > 100 µM (inactive); with HCT-15 it was more than 100 µM; with SK-MEL-2, > 100 µM (inactive). In addition, the GI50 in the assay with SNB-75 was > 100 µM (inactive).

In the case of `COc1cc(S(=O)(=O)Nc2ccc(-c3csc(/N=C\c4ccccc4)n3)cc2)ccc1Cl`, the GI50 was 32 µM (inactive) with SF-268; 85.1 µM (inactive) in the assay on DU-145; 56.1 µM (inactive) with M14; 43.9 µM (inactive) with LOX IMVI; 37.5 µM (inactive) in the assay on A498; 31.6 µM (inactive) with SNB-19. In addition, the GI50 in the assay on MDA-N was 39 µM (inactive); with NCI-H23, 60.7 µM (inactive); with K562 it was 32.2 µM (inactive); with A549 it was > 100 µM (inactive); in the assay on OVCAR-3, 56.9 µM (inactive); with NCI-H522, 29.9 µM (inactive). The GI50 was 17 µM (inactive) with CCRF-CEM; more than 100 µM in the assay on HCT-15; 29.8 µM (inactive) with SR; 25.2 µM (inactive) in the assay on SK-MEL-2; 62.7 µM (inactive) in the assay with SNB-75.

Take `CCCCC(C(=O)N/N=C/c1ccc([N+](=O)[O-])o1)C(=O)N/N=C/c1ccc([N+](=O)[O-])o1`: the GI50 in the assay on SF-268 was 5.65 µM (inactive); with DU-145, 5.37 µM (inactive); in the assay on M14, 3.81 µM (inactive); with LOX IMVI, 1.84 µM (inactive); with A498, 19.8 µM (inactive); in the assay with SNB-19, 3.64 µM (inactive). Further, the GI50 was 15.1 µM (inactive) in the assay on NCI-H460; 2.28 µM (inactive) in the assay with TK-10; 3.53 µM (inactive) with MDA-N; 2.02 µM (inactive) in the assay on NCI-H23; 3.28 µM (inactive) in the assay with K562; 17.7 µM (inactive) in the assay with A549. In addition, the GI50 with OVCAR-3 is 2.32 µM (inactive); with CCRF-CEM, 0.977 µM (active); in the assay on HCT-15 it was 2.26 µM; in the assay with SK-MEL-2, 7.19 µM (inactive); in the assay with SNB-75, 17.9 µM (inactive).

In the case of `CC(=O)OCC(C)(COC(C)=O)N1C(=O)C2C3c4ccccc4C(c4ccccc43)C2C1=O` (stereo unspecified), the GI50 in the assay on SF-268, with DU-145, in the assay on M14, in the assay on LOX IMVI, with A498 and in the assay with SNB-19 was > 100 µM (inactive) each time. Besides, the GI50 was > 100 µM (inactive) with NCI-H460; > 100 µM (inactive) in the assay on TK-10; 28.1 µM (inactive) with MDA-N; > 100 µM (inactive) in the assay with NCI-H23; > 100 µM (inactive) in the assay with K562; > 100 µM (inactive) in the assay on A549. The GI50 in the assay with OVCAR-3 is > 100 µM (inactive); with CCRF-CEM, > 100 µM (inactive); in the assay on HCT-15, more than 100 µM; in the assay with SR, > 100 µM (inactive); in the assay with SNB-75, 49.7 µM (inactive).

Consider `C#CCn1c(=O)ccn(/C(=C/C(=O)OCC)C(=O)OCC)c1=O`, for which the GI50 was 13.1 µM (inactive) in the assay with SF-268; 13.8 µM (inactive) in the assay on DU-145; 4.05 µM (inactive) with M14; 13.9 µM (inactive) with LOX IMVI; 15.1 µM (inactive) in the assay on A498; 19 µM (inactive) in the assay with SNB-19. Besides, the GI50 was 2.69 µM (inactive) in the assay with NCI-H460; 1.77 µM (inactive) with TK-10; 17.2 µM (inactive) in the assay on MDA-N; 11.9 µM (inactive) with NCI-H23; 3.36 µM (inactive) with K562; 17.2 µM (inactive) in the assay with A549. Besides, the GI50 with OVCAR-3 is 6.35 µM (inactive); in the assay on CCRF-CEM, 0.61 µM (active); in the assay with HCT-15, 1.06 µM; in the assay with SR, 3.45 µM (inactive); with SK-MEL-2, 15.2 µM (inactive); in the assay on SNB-75 it was 20.8 µM (inactive).

As for `C/C=C/CC(C(=O)OCC)(N(C)C(=O)OC(C)(C)C)S(=O)(=O)c1ccc(C)cc1` (stereo unspecified), the GI50 in the assay with SF-268 is > 100 µM (inactive); with DU-145, > 100 µM (inactive); in the assay on M14, 50.6 µM (inactive); in the assay with LOX IMVI it was > 100 µM (inactive); in the assay with A498, > 100 µM (inactive); in the assay with SNB-19, > 100 µM (inactive). The GI50 in the assay with TK-10 is > 100 µM (inactive); with MDA-N, 22.1 µM (inactive); in the assay on NCI-H23 it was > 100 µM (inactive); with K562, 70.5 µM (inactive); in the assay on A549 it was 85.9 µM (inactive); in the assay with OVCAR-3 it was > 100 µM (inactive). Besides, the GI50 in the assay with NCI-H522 was 57.7 µM (inactive); with CCRF-CEM, > 100 µM (inactive); in the assay on HCT-15 it was 61.9 µM; with SK-MEL-2, 51.6 µM (inactive).

Take `Cc1ccc(C)n1-c1ccccc1C1SCCCS1`: the GI50 is > 100 µM (inactive) in the assay on SF-268; > 100 µM (inactive) in the assay on DU-145; > 100 µM (inactive) in the assay with HCC 2998; 57.1 µM (inactive) in the assay on M14; > 100 µM (inactive) in the assay with LOX IMVI; > 100 µM (inactive) with A498. Moreover, the GI50 in the assay with SNB-19, in the assay on NCI-H460, with TK-10, in the assay on MDA-N, in the assay with NCI-H23 and with K562 was > 100 µM (inactive) throughout. The GI50 with A549 is 98.9 µM (inactive); in the assay on OVCAR-3, > 100 µM (inactive); in the assay with NCI-H522, > 100 µM (inactive); in the assay with CCRF-CEM, 59.8 µM (inactive); in the assay on HCT-15 it was more than 100 µM; with SK-MEL-2 it was > 100 µM (inactive). For the same compound, the GI50 in the assay on SNB-75 is 84.5 µM (inactive).
